One assay concerns male mice of ddN strain. Nature of the assay: Analgesic activity: D'Amour-Smith method (thermal pain). It counts as in vivo. The settings on record: response time prolonged more than 100 %; for ED50: Mus musculus, sc; for Analgesic ED50 value, D'Amour-Smith method: s.c. On the procedure:
i. D'Amour-Smith method (cf. F. E. D'Amour and D. L. Smith, J. Pharmacol., Vol. 72, page 74, 1941)
Thermal pain was induced by radiating heat light on the tail blacked with a black ink of male mice of ddN strain, weighing 9 to 12 g, using the modified apparatus of D'Amour-Smith. The analgesic ED50 -value was calculated from the number of positive animals showing the response time prolonged more than 100 % compared with each before value.

For another assay, the system named is female mice. Nature of the assay: Analgesic activity: Phenylquinone method (chemical pain). The settings on record: drugs given 30 minutes before i.p. phenylquinone; for ED50: Mus musculus, po. In kind it is in vivo, mice (ddN strain). On the procedure: ii. Phenylquinone method (cf. E. Siegmund, R. Cadmus and G. Lu, Proc. Soc. Exptl. Biol. Med., Vol. 95, page 729, 1957)
Chemical pain was induced by an intraperitoneal injection of 0.1 ml/10 g body weight of 0.03 % phenylquinone in 5 % aqueous ethanol in female mice, weighing 18 to 22 g of ddN strain. Drugs were given 30 minutes before challenge of phenylquinone.

Another assay concerns Male guinea-pigs. In words: Anti-tussive activity (coughs by mechanical stimulation). The following applies: intraperitoneal; for anti-tussive activity: dose of 5-40 mg/kg; for anti-tussive activity compared with codeine phosphate: vs codeine phosphate. It counts as in vivo. The method, then:
2. Anti-tussive activity (cf. K. Takagi, H. Fukuda and K. Yano, Yakugakuzasshi, Vol. 80, page 1497, 1960)
Male guinea-pigs, weighing 350 to 450 g, were used. Coughs were caused by successive mechanical stimulations with whiskers, and anti-tussive effects were evaluated by all or none of the cough. The Test Compounds F and G were intraperitoneally injected.

Structures are written as SMILES. Structures can show the parent of a compound that is named as a salt. Where only a bound is given, the exact number is not on record here.

From patent publication US3988456A, “1,2-Diphenylethanolamine derivatives and their salts and the preparation thereof” (Dainippon Pharmaceutical Co., Ltd., priority 1974, dated 1976) come the findings set out here.

Consider `Cl.Cl.O=C(c1ccccc1)C(c1ccccc1)N1CCN(Cc2ccccc2)CC1` (racemic) [compound 2, dl-2-Phenyl-2-(4-benzylpiperazin-1-yl)acetophenone dihydrochloride, reference compound], for which the ED50 with male mice of ddN strain is above 320 mg/kg.
Compound `COc1ccc(CN2CCN([C@H](c3ccccc3)[C@@H](O)c3ccc(Cl)cc3)CC2)cc1` (relative stereo) [Test Compound A, dl-Erythro-1-(p-chlorophenyl)-2-phenyl-2-[4-(p-methoxybenzyl)piperazin-1-yl]ethanol dihydrochloride] returned an ED50 with female mice of 49.9 mg/kg.
For `COc1ccc(CN2CCN([C@H](c3ccccc3Cl)[C@@H](O)c3ccccc3)CC2)cc1` (relative stereo) [Test Compound B, dl-Erythro-1-phenyl-2-(o-chlorophenyl)-2-[4-(p-methoxybenzyl)piperazin-1-yl]ethanol dihydrochloride], the values for the ED50 with female mice and in the assay on male mice of ddN strain were 45.1 mg/kg and 55.5 mg/kg, respectively.
For the compound `COc1ccc(CN2CCN([C@H](c3ccccc3OC)[C@@H](O)c3ccccc3)CC2)cc1` (relative stereo) [Test Compound C, dl-Erythro-1-phenyl-2-(o-methoxyphenyl)-2-[4-(p-methoxybenzyl)piperazin-1-yl]ethanol dihydrochloride], the ED50 amounted to 28.6 mg/kg with female mice and 32.5 mg/kg with male mice of ddN strain.
The matching figures for `COc1ccc(CN2CCN([C@H](c3ccc(C)cc3)[C@@H](O)c3ccc(C)cc3)CC2)cc1` (relative stereo) [Test Compound D, dl-Erythro-1-(p-tolyl)-2-(p-tolyl)-2-[4-(p-methoxybenzyl)piperazin-1-yl]ethanol dihydrochloride]: 55.6 mg/kg and 98.6 mg/kg.
On to `COc1ccc(CN2CCN([C@H](c3ccccc3C)[C@@H](O)c3ccccc3)CC2)cc1` (relative stereo) [Test Compound E, dl-Erythro-1-phenyl-2-(o-tolyl)-2-[4-(p-methoxybenzyl)-piperazin-1-yl]ethanol dihydrochloride], for which the ED50 in the assay with female mice was 30.2 mg/kg; in the assay with male mice of ddN strain, 65.2 mg/kg.
On to `COc1ccc(CN2CCN([C@H](c3ccccc3)[C@@H](O)c3cccc(C)c3)CC2)cc1` (relative stereo) [Test Compound G, dl-erythro-1-(m-tolyl)-2-phenyl-2-[4-(p-methoxybenzyl)piperazine-1-yl]ethanol dihydrochloride], for which, in the assay with Male guinea-pigs, the anti-tussive activity result is recorded as “excellent anti-tussive activity in a dose of 5-40 mg/kg” and the “anti-tussive activity compared with codeine phosphate” value is given as “comparable with that of codeine phosphate”.
As for `CN1CCN([C@H](c2ccccc2)[C@@H](O)c2ccccc2)CC1` (relative stereo) [compound 1, dl-Erythro-1,2-diphenyl-2-(4-methylpiperazin-1-yl)ethanol dihydrochloride, reference compound], the “Analgesic ED50 value, D'Amour-Smith method” value in the assay on male mice of ddN strain is “inactive”.
As to `COc1ccc(CN2CCN(C(c3ccccc3)C(O)c3ccccc3)CC2)cc1.Cl.Cl` (stereo not drawn) [Test Compound F, d-Erythro-1,2-diphenyl-2-[4-(p-methoxybenzyl)piperazin-1-yl]ethanol dihydrochloride], the “Analgesic ED50 value, Phenylquinone method” value with female mice (p.o.) worked out at 63.2 mg/kg. In addition, in the assay with Male guinea-pigs, the anti-tussive activity result is “excellent anti-tussive activity in a dose of 5-40 mg/kg” and the “anti-tussive activity compared with codeine phosphate” value is listed as “more potent than that of codeine phosphate”. Further, in the assay on male mice of ddN strain, the “Analgesic ED50 value, D'Amour-Smith method” value came out at 37.2 mg/kg.
`Cc1c(N(C)C)c(=O)n(-c2ccccc2)n1C` [compound 3, Aminopyrine, reference compound]: the values for the ED50 in the assay on female mice and with male mice of ddN strain were 53.3 mg/kg and 233 mg/kg, respectively.

The ED50 is the dose at which the effect has come halfway, by size or by number of responders. Higher therefore signals a need for a large dose.
